These results are taken from US7410971B2, “1,2-di(cyclic)substituted benzene compounds” (Eisai R&D Management Co., Ltd., priority 2003, dated 2008).

Assay [1] deals with human peripheral blood neutrophils. The assay can be described thus: Human peripheral blood neutrophil adhesion system (adhesion to immobilized HUVEC, PMA-stimulated). The class given is cell-based. Particulars: concentration inhibiting by 50% the PMA-stimulated increase in number of adhered BCECF-AM labeled neutrophils on HUVEC immobilized plate. As for the experimental part:
Evaluation of Compounds in Human Peripheral Blood Neutrophil Adhesion System
<Preparation of Human Peripheral Blood Neutrophils>
To a plastic centrifugation tube containing 100 units of heparin sodium (Shimizu Pharmaceutical) was added 25 ml of fresh blood sampled from a healthy human. After adding and mixing therewith 8 ml of physiological saline (Otsuka Pharmaceutical) containing 6% Dextran (Nacalai), the mixture was allowed to stand room temperature for 45 minutes for sedimentation of the erythrocytes. The resultant supernatant was transferred to another plastic centrifugation tube and combined with an equivalent volume of phosphate-buffered saline (hereinafter abbreviated as PBS; Sigma), and then centrifuged at 1600 rpm for 7 minutes at room temperature. The obtained hematocyte fraction was suspended in 4 ml of PBS, and the suspension was superposed on 4 ml of Ficoll-Paque™ PLUS (Amersham Biosciences). The resultant bilayer liquid was centrifuged at 2000 rpm for 30 minutes at room temperature, after which the supernatant was removed and the precipitate was suspended in 10 ml of PBS and centrifuged at 1200 rpm for 7 minutes, and the supernatant was removed. The resulting precipitate was suspended in 0.5 ml of PBS again, and then 10 ml of distilled water (Otsuka Pharmaceutical) was added, 0.5 ml of an aqueous solution containing 3 M NaCl was immediately added to restore isotonicity, the mixture was centrifuged at 1200 rpm for 7 minutes, and the obtained precipitate was suspended in PBS containing 1 mg/ml bovine serum albumin (hereinafter abbreviated as BSA; Sigma) again and stored in ice until being used for the experiment.
<Fluorescent Labeling of Human Peripheral Blood Neutrophils>
The obtained neutrophils were suspended in PBS containing 1 mg/ml BSA at 2×10^7 cells/ml. BCECF-AM (Dojin) was added to a final concentration of 5 μM, and the mixture was incubated at 37° C. for 45 minutes. It was then rinsed twice with PBS containing 1 mg/ml BSA by centrifugation, suspended again in PBS containing 1 mg/ml BSA at 5×10^7 cells/ml, and stored in ice until use.
<Preparation of HUVEC Immobilized Plate>
Human umbilical vein endothelial cells (hereinafter abbreviated as HUVEC) were suspended in MCDB131 medium (Chlorella Industries) containing 10% fetal calf serum and 30 μg/ml endothelial cell growth supplement (Becton Dickinson Bioscience). The suspension was added at 7.5×10^3 cells/well to a 96-well plate (Iwaki) immobilized with type I collagen, and cultured for 3 days in a CO2 incubator (Hirasawa). Upon confirming confluency of the cells, the supernatant was discarded, the plate was rinsed twice with PBS, and then PBS containing 0.1% glutaraldehyde (Kanto Kagaku) was added at 100 μl/well and the HUVECs were immobilized for 5 minutes. The supernatant was discarded and the plate was washed twice with PBS, and then PBS was added at 100 μl/well and the mixture was stored at 4° C. until use.
To 6.5 ml of RPMI-1640 medium (Sigma) containing 1 mg/ml of BSA were added 0.5 ml of a suspension of BCECF-AM labeled neutrophils at 5×10^7/ml stored in ice, which was mixed, and the mixture was added at 80 μl/well to a HUVEC immobilized plate. […] The supernatant was removed from the plate, which was then washed several times with RPMI-1640 at 100 μl/well, and then PBS containing 0.1% NP-40 (Calbiochem) was added thereto at 100 μl/well and the fluorescent intensity was measured with an ARVO™SX 1420 multi label counter (Wallac) to determine the number of adhered cells. […]

Assay [2] deals with colon-infiltrating neutrophils (myeloperoxidase enzyme activity). The assay can be described thus: Oxazolone-induced colon neutrophil infiltration model. Format: in vivo, Balb/c mice. The note with it: Mus musculus, po, 30 mg/kg orally 30 minutes prior to intrarectal oxazolone, colon myeloperoxidase activity 4 hours after, vs oxazolone control group, read-out: Inhibitory rate (%). As for the experimental part: Evaluation of Compounds in Oxazolone-Induced Colon Neutrophil Infiltration Model
<Sensitization with Oxazolone>
Five- to six-week-old male Balb/c mice (Charles River Japan) were shaven at the abdomen to an approximately 2 cm square area. A 100% ethanol solution containing 3% 4-ethoxymethylene-2-phenyl-2-oxazolin-5-one (hereinafter referred to as “oxazolone”; Sigma) was applied at 150 μl onto the abdomen of each mouse.
<Preparation of Emulsion Containing Oxazolone>
Distilled water (Otsuka Pharmaceutical) was added in an equivalent volume to 100% peanut oil (Kanto Kagaku) containing 1% oxazolone, and the components were vigorously mixed with a glass syringe (Top Co.), to prepare an emulsion containing 0.5% oxazolone.
<Induction with Oxazolone>
The mice were fasted on the 3rd day after oxazolone sensitization, and were injected with 100 μl of the emulsion containing 0.5% oxazolone prepared in the way described above intrarectally at a site approximately 3 cm from the anus under ether anesthesia on the 4th day.
<Colon-Infiltrating Neutrophil Assay>
Each compound was suspended or dissolved in an aqueous solution containing 0.5% methyl cellulose (Wako), and orally administered at 30 mg/kg 30 minutes prior to the intrarectal injection of oxazolone emulsion. Four hours after the intrarectal injection of oxazolone, mice were sacrificed by cervical dislocation, and colons were extirpated, dissected in the longitudinal direction, washed with physiological saline, and transferred to ice-cooled plastic centrifugation tubes. After adding 1 ml of 50 mM potassium phosphate buffer (hereinafter abbreviated as KPB) (pH 6.0) to the tube, and the tissue were homogenized with PHYSCOTRON (Microtec Nition Co., Ltd.), 2 ml of 50 mM KPB (pH 6.0) was added and the mixture was centrifuged at 3000 rpm, 4° C. for 10 minutes and the supernatant was removed. To the resultant precipitate was added 1 ml of 50 mM KPB (pH 6.0) containing 0.5% hexadecyltrimethyl-ammonium bromide (Sigma), and freeze-thawed 3 to 5 times using liquid nitrogen and hot water, centrifuged at 3000 rpm, 4° C. for 10 minutes to yield a supernatant. The myeloperoxidase enzyme activity in the supernatant was assayed in the following manner. Specifically, to 10 μl of the obtained supernatant was added 200 μl of 50 mM KPB (pH6.0) containing 0.017% o-dianisidine (Sigma) and 0.0005% hydrogen peroxide (Wako), incubated at 37° C., and the change in absorbance at 450 nm was continuously measured for 1 minute using an EL340 Automated Microplate Reader (BIO-TEK) in kinetic mode. The units were the rate of change in absorbance per minute (mO.D./min.). With regard to the effect of each compound, the inhibitory rate (%) with respect to the oxazolone control group, i.e. the oxazolone-injected/compound-free group, was shown in the table 3.

`CCCCN1CCN(c2cc(C#N)ccc2[C@H]2CC[C@@H](C(C)(C)C)CC2)CC1.Cl` [Example 12, cis-4-(4-t-Butylcyclohexyl)-3-(4-butylpiperazine-1-yl)benzonitrile hydrochloride] had an IC50 in assay [1] of 18.3 µM. Also, the inhibition in vivo at 30 mg/kg in assay [2] came out at 34%.

In assay [1], `CCCCN1CCN(c2cc(C#N)ccc2[C@H]2CC[C@H](C(C)(C)C)CC2)CC1.Cl` [Example 13, trans-4-(4-t-Butylcyclohexyl)-3-(4-butylpiperazin-1-yl)benzonitrile hydrochloride] yielded an IC50 of 53.9 µM. Further, in assay [2], the inhibition in vivo at 30 mg/kg came to 13%.

Broadly, the IC50 is the concentration needed to halve the response being measured. Low values mean higher potency, high ones lower potency.
